Measured values from patent US20240041028A1, “DELIVERY SYSTEM FOR PLANT PROTECTION” (Omya International AG, priority 2021, published 2024).

Tested on: Botrytis cinerea strain SAS 56
Experiment: Efficacy of pyrimethanil tablets against Botrytis on tomato fruits
Type: in vivo
Details: 6 days after inoculation (6 dpi); active applied one day prior to inoculation, 80 μl per hole
Description: • Tablets loaded with pyrimethanil (sample V3.3, 2.1 wt.-%, prepared according to Example 4) • Hydromagnesite tablets unloaded • Fungicide Espiro SC, commercially available from Omya Agro • Pure pyrimethanil powder, commercially available from Pluorochem Ltd • Five plastic trays with lids • Screwdriver • Eppendorf Pipette […] • Tomato fruits (calibration 47-57 mm) • Inoculum: Spore suspension of Botrytis cinerea strain SAS 56 (3×10^5 spores/ml), commercially available from DSMZ collection.
• Treatment 1: Untreated check. • Treatment 2: Tablets loaded with pyrimethanil (sample V3.3, 2.1 wt.-%, prepared according to Example 4) (0.03 gr active/tablet). • Treatment 3: Unloaded hydromagnesite tablet. • Treatment 4: Fungicide Espiro (appl. rate 0.125% (v/v based on the total amount of prepared treatment solution (solution amount: 50 ml, see below), resulting in pyrimethanil active 400 gr/1). • Treatment 5: Pure pyrimethanil active diluted in ethanol of 99% purity.
• Treatment 1: Only inoculum applied • Treatment 2: In 50 ml of water 1 tablet was dissolved. […]
Three days after the inoculation the first symptoms in the untreated check were detected. […]

## Cc1cc(C)nc(Nc2ccccc2)n1 [Pyrimethanil]
  Botrytis spore germination / mycelium growth on tomato fruits: no mycelium was produced
